# In US6737383B1, “Herbicidal oxadiazolidines” (priority 1999, dated 2004):
# Experiments:
# corn = test: Test C postemergence corn; type: in vivo, Zea mays; settings: 0 to 100 scale, 0 no effect, 100 complete control
# Procedure, shortened: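 Postemergence spray; formulation = non-phytotoxic solvent + surfactant; soil 60:40 sandy loam:greenhouse potting mix; greenhouse, ~14–21 d; visual rating vs untreated, 0–100 (100 = complete control).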
# Alexandergrass = test: Test D Alexandergrass; type: in vivo, Brachiaria plantaginea; settings: Preemergence, 0 to 100 scale
# Procedure, shortened: (§1)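 Greenhouse pots, seeds in sandy loam; compounds formulated in non-phytotoxic solvent with surfactant; preemergence treatments went on the soil surface within one day of planting. Injury rated visually 14 to 21 days after application on a 0 (none) to 100 (complete control) scale.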
# bermuda-grass = test: Test D bermudagrass; type: in vivo, Cynodon dactylon; settings: Preemergence, 0 to 100 scale
# Procedure, shortened: as §1
# common ragweed = test: Test D common ragweed; type: in vivo, Ambrosia elatior; settings: Preemergence, 0 to 100 scale
# Procedure, shortened: as §1
# common groundsel = test: Test D common groundsel; type: in vivo, Senecio vulgaris; settings: Preemergence, 0 to 100 scale
# Procedure, shortened: as §1
# dallisgrass = test: Test D dallisgrass; type: in vivo, Paspalum dilatatum; settings: Preemergence, 0 to 100 scale
# Procedure, shortened: as §1
# goosegrass = test: Test D goosegrass; type: in vivo, Eleusine indica; settings: Preemergence, 0 to 100 scale
# Procedure, shortened: as §1
# guineagrass = test: Test D guineagrass; type: in vivo, Panicum maximum; settings: Preemergence, 0 to 100 scale
# Procedure, shortened: as §1
# itchgrass = test: Test D itchgrass; type: in vivo, Rottboellia exaltata; settings: Preemergence, 0 to 100 scale
# Procedure, shortened: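 Scoring used a 0–100 visual injury scale, with 0 meaning no effect and 100 complete control, assessed 14–21 days after application alongside untreated pots. Preemergence treatments went onto sandy loam surfaces of separately potted seeds within a day of sowing.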
# Johnson grass = test: Test D Johnson grass; type: in vivo, Sorghum halepense; settings: Preemergence, 0 to 100 scale
# Procedure, shortened: as §1
# pitted morningglory = test: Test D pitted morningglory; type: in vivo, Ipomoea lacunosa; settings: Preemergence, 0 to 100 scale
# Procedure, shortened: as §1
# sandbur = test: Test D sandbur; type: in vivo, Cenchrus echinatus; settings: Preemergence, 0 to 100 scale
# Procedure, shortened: as §1
# surinam grass = test: Test D surinam grass; type: in vivo, Brachiaria decumbens; settings: Preemergence, 0 to 100 scale
# Procedure, shortened: as §1
# tall mallow = test: Test D tall mallow; type: in vivo, Malva sylvestris; settings: Preemergence, 0 to 100 scale
# Procedure, shortened: as §1
# Green foxtail [1] = test: Test D green foxtail; type: in vivo; settings: Preemergence, 0 to 100 scale
# Procedure, shortened: as §1
# Green foxtail [2] = test: Test D green foxtail; type: in vivo
# Procedure, shortened: as §1
# [3] = Rate 16 g/ha, 0 no injury, 100 complete control
# [4] = Rate 32 g/ha, 0 no injury, 100 complete control
# [5] = Rate 64 g/ha, 0 no injury, 100 complete control
# [6] = Rate 125 g/ha, 0 no injury, 100 complete control
# [7] = Rate 64 g/ha, Preemergence; 0 to 100 scale, 0 no injury, 100 complete control
# [8] = Rate 125 g/ha, Preemergence; 0 to 100 scale, 0 no injury, 100 complete control
compound,measurement,setting,value
CC(C)N(C(=O)n1oc(=O)n(Cc2cccs2)c1=O)c1ccccc1 [Compound 103],"Plant response rating, Corn",corn; Rate 140 g/ha,0
same,"Plant response rating, Corn",corn; Rate 280 g/ha,0
same,"Plant response rating, Corn",corn; Rate 560 g/ha,0
same,"Plant response rating, Corn",corn; Rate 1120 g/ha,0
same,"Plant response rating, Alexandergrass",Alexandergrass; [3],0
same,"Plant response rating, Alexandergrass",Alexandergrass; [4],0
same,"Plant response rating, Alexandergrass",Alexandergrass; [5],0
same,"Plant response rating, Alexandergrass",Alexandergrass; [6],40
same,"Plant response rating, Alexandergrass",Alexandergrass; Rate 250 g/ha,85
same,"Plant response rating, Alexandergrass",Alexandergrass; Rate 500 g/ha,95
same,"Plant response rating, Bermudagrass",bermuda-grass; [3],30
same,"Plant response rating, Bermudagrass",bermuda-grass; [4],30
same,"Plant response rating, Bermudagrass",bermuda-grass; [5],60
same,"Plant response rating, Bermudagrass",bermuda-grass; [6],80
same,"Plant response rating, Bermudagrass",bermuda-grass; Rate 250 g/ha,100
same,"Plant response rating, Bermudagrass",bermuda-grass; Rate 500 g/ha,100
same,"Plant response rating, C. ragweed",common ragweed; [3],0
same,"Plant response rating, C. ragweed",common ragweed; [4],0
same,"Plant response rating, C. ragweed",common ragweed; [5],0
same,"Plant response rating, C. ragweed",common ragweed; [6],0
same,"Plant response rating, C. ragweed",common ragweed; Rate 250 g/ha,0
same,"Plant response rating, C. ragweed",common ragweed; Rate 500 g/ha,0
same,"Plant response rating, Com. groundsel",common groundsel; [3],0
same,"Plant response rating, Com. groundsel",common groundsel; [4],0
same,"Plant response rating, Com. groundsel",common groundsel; [5],0
same,"Plant response rating, Com. groundsel",common groundsel; [6],0
same,"Plant response rating, Com. groundsel",common groundsel; Rate 250 g/ha,0
same,"Plant response rating, Com. groundsel",common groundsel; Rate 500 g/ha,0
same,"Plant response rating, Dallisgrass",dallisgrass; [3],10
same,"Plant response rating, Dallisgrass",dallisgrass; [4],20
same,"Plant response rating, Dallisgrass",dallisgrass; [5],45
same,"Plant response rating, Dallisgrass",dallisgrass; [6],65
same,"Plant response rating, Dallisgrass",dallisgrass; Rate 250 g/ha,98
same,"Plant response rating, Dallisgrass",dallisgrass; Rate 500 g/ha,100
same,"Plant response rating, Goosegrass",goosegrass; [3],0
same,"Plant response rating, Goosegrass",goosegrass; [4],30
same,"Plant response rating, Goosegrass",goosegrass; [5],65
same,"Plant response rating, Goosegrass",goosegrass; [6],85
same,"Plant response rating, Goosegrass",goosegrass; Rate 250 g/ha,98
same,"Plant response rating, Goosegrass",goosegrass; Rate 500 g/ha,100
same,"Plant response rating, Guineagrass",guineagrass; [3],0
same,"Plant response rating, Guineagrass",guineagrass; [4],0
same,"Plant response rating, Guineagrass",guineagrass; [5],0
same,"Plant response rating, Guineagrass",guineagrass; [6],85
same,"Plant response rating, Guineagrass",guineagrass; Rate 250 g/ha,90
same,"Plant response rating, Guineagrass",guineagrass; Rate 500 g/ha,100
same,"Plant response rating, Itchgrass",itchgrass; [3],0
same,"Plant response rating, Itchgrass",itchgrass; [4],0
same,"Plant response rating, Itchgrass",itchgrass; [5],0
same,"Plant response rating, Itchgrass",itchgrass; [6],0
same,"Plant response rating, Itchgrass",itchgrass; Rate 250 g/ha,0
same,"Plant response rating, Itchgrass",itchgrass; Rate 500 g/ha,0
same,"Plant response rating, Johnsongrass",Johnson grass; [3],0
same,"Plant response rating, Johnsongrass",Johnson grass; [4],0
same,"Plant response rating, Johnsongrass",Johnson grass; [5],0
same,"Plant response rating, Johnsongrass",Johnson grass; [6],0
same,"Plant response rating, Johnsongrass",Johnson grass; Rate 250 g/ha,0
same,"Plant response rating, Johnsongrass",Johnson grass; Rate 500 g/ha,40
same,"Plant response rating, P. morninglory",pitted morningglory; [3],0
same,"Plant response rating, P. morninglory",pitted morningglory; [4],0
same,"Plant response rating, P. morninglory",pitted morningglory; [5],0
same,"Plant response rating, P. morninglory",pitted morningglory; [6],0
same,"Plant response rating, P. morninglory",pitted morningglory; Rate 250 g/ha,0
same,"Plant response rating, P. morninglory",pitted morningglory; Rate 500 g/ha,0
same,"Plant response rating, Sandbur",sandbur; [3],0
same,"Plant response rating, Sandbur",sandbur; [4],0
same,Sandbur plant response rating,sandbur; [5],0
same,Sandbur plant response rating,sandbur; [6],0
same,"Plant response rating, Sandbur",sandbur; Rate 250 g/ha,75
same,"Plant response rating, Sandbur",sandbur; Rate 500 g/ha,100
same,"Plant response rating, Surinam grass",surinam grass; [3],0
same,"Plant response rating, Surinam grass",surinam grass; [4],0
same,Surinam grass plant response rating,surinam grass; [5],0
same,Surinam grass plant response rating,surinam grass; [6],0
same,"Plant response rating, Surinam grass",surinam grass; Rate 250 g/ha,0
same,"Plant response rating, Surinam grass",surinam grass; Rate 500 g/ha,40
same,"Plant response rating, Tall Mallow",tall mallow; [3],0
same,"Plant response rating, Tall Mallow",tall mallow; [4],0
same,Tall Mallow plant response rating,tall mallow; [5],0
same,Tall Mallow plant response rating,tall mallow; [6],0
same,"Plant response rating, Tall Mallow",tall mallow; Rate 250 g/ha,0
same,"Plant response rating, Tall Mallow",tall mallow; Rate 500 g/ha,0
same,"Plant response rating, Green foxtail",Green foxtail [1]; Rate 250 g/ha,100
same,"Plant response rating, Green foxtail",Green foxtail [1]; Rate 500 g/ha,100
same,"Plant response rating, Green foxtail","Green foxtail [2]; Preemergence; Rate 16 g/ha; 0 to 100 scale, 0 no injury, 100 complete control",0
same,"Plant response rating, Green foxtail","Green foxtail [2]; Preemergence; Rate 32 g/ha; 0 to 100 scale, 0 no injury, 100 complete control",0
same,"Plant response rating, Green foxtail","Green foxtail [2]; Rate 16 g/ha; Preemergence; 0 to 100 scale, 0 no injury, 100 complete control",0
same,"Plant response rating, Green foxtail","Green foxtail [2]; Rate 32 g/ha; Preemergence; 0 to 100 scale, 0 no injury, 100 complete control",85
same,Green foxtail plant response rating,Green foxtail [2]; [7],50
same,"Plant response rating, Green foxtail",Green foxtail [2]; [7],50
same,Green foxtail plant response rating,Green foxtail [2]; [8],100
same,"Plant response rating, Green foxtail",Green foxtail [2]; [8],100
same,"Plant response rating, Green foxtail",Green foxtail [2]; Rate 250 g/ha; Preemergence; 0 to 100 scale,100
same,"Plant response rating, Green foxtail","Green foxtail [2]; Rate 500 g/ha, Preemergence; 0 to 100 scale",100
